The values below come from article PMC11819763, “Activity of Potassium Channel BmK-NSPK Inhibitor Regulated by Basic Amino Acid Residues: Novel Insight into the Diverse Peptide Pharmacology” (Molecules, 2025).

Positions of bridges follow the written chain, without caps; N, C: chain ends. Residues, ends and D or L forms follow the SMILES beside them.

Among the targets are hKv1.1 channel (human) (UniProt Q09470); hKv1.2 channel (human) (UniProt P16389); hKv1.6 channel (human) (UniProt P17658).
Test [1] has as its target human Kv1.3 potassium channel (human) (UniProt P22001).
A further test has as its system hKv1.1 channel. The test is described as follows: Whole-cell patch clamp, hKv1.1 channel currents. Format: cell-based, human. The following applies: 1 μM peptide, mean ± SE, n ≥ 3, SEM. From the text:
(§1) The pRc/CMV-hKv1.3 was kindly provided by Professor Stephan Grissmer (University of Ulm, Ulm, Germany) and Professor Olaf Pongs (Zentrum für Molekulare Neurobiologie der Universität Hamburg, Hamburg, Germany). The cDNAs encoding hKv1.1 and hKv1.2 (from Professor Stephan Grissmer, University of Ulm, Ulm, Germany) were subcloned into the vector pIRES2-EGFP (TaKaRa Clontech, Mountain View, CA, USA). The cDNAs encoding hKv1.6 were subcloned into the vector pcDNA 3.1(+) (TaKaRa Clontech, Mountain View, CA, USA). A QuikChange Site-Directed Mutagenesis Kit (Stratagene, La Jolla, CA, USA) was used to produce the mutants based on the wild-type hKv1.3 channel plasmids. All plasmids and their mutants were verified by DNA sequencing before the expression. The three channel chimeras were, respectively, named by hKv1.3-M1 (425DPTSGFS432 → 425ERESQFP432), hKv1.3-M2 (452HPV456 → 452VPT456) and hKv1.3-M3 (425DPTSGFS432 → 425ERESQFP432, 452HPV456 → 452VPT456).
(§2) In a 5% CO2 incubator at 37 °C, HEK293T cells were cultured in DMEM medium (Gibco, Grand Island, NY, USA) supplemented with 10% fetal bovine serum and 1% penicillin/streptomycin. Potassium channel plasmids and pEGFP-N1 were co-transfected into the HEK293 cells using the ExFect Transfection Reagent (Vazyme, Nanjin, China). After one day of transfection, the potassium currents were recorded, and the positive cells were selected based on the presence of GFP fluorescence.
(§3) Whole-cell current measurement and data acquisition were performed using an EPC-10 patch-clamp amplifier controlled by Pulse (HEKA Elektronik, Lambrecht, Germany). The potassium currents were recorded according to the recording protocol for the Kv1 channel, as described in previously published references. Peptides were dissolved in an external solution containing 0.01% BSA for electrophysiological experiments. […]
For orientation: The patch-clamp technique gives a direct electrical read-out from membranes.

The next test deals with hKv1.2 channel. As to the kind of experiment: Whole-cell patch clamp, hKv1.2 channel currents. Format: cell-based, human. The following applies: 1 μM peptide, mean ± SE, n ≥ 3, SEM.
Source text: as §1, §2, §3

In another test the test system is hKv1.6 channel. The test is described as follows: Whole-cell patch clamp, hKv1.6 channel currents. Format: cell-based, human. Particulars: 1 μM peptide, mean ± SE, n ≥ 3, SEM.
Source text: as §1, §2, §3

Test [2] concerns hKv1.3-M1 channel (turret domain of hKv1.3 substituted by hKv1.2 region). As to the kind of experiment: Whole-cell patch clamp, chimeric hKv1.3-M1 channel currents. Format: cell-based, human. The following applies: mean ± SE, n ≥ 3, SEM. As for the experimental part:
In order to further investigate the effect of basic residue number on BmK-NSPK pharmacology, the activities of BmK-NSPK analogs were also tested on the Kv1.3 channel chimeras in this work. […] Based on the weak inhibition potencies of BmK-NSPK-7K and BmK-NSPK-8K towards hKv1.2 channel (Figure 5C,D), the work first constructed the chimeric hKv1.3-M1, in which the turret domain of hKv1.3 channel was substituted by the equivalent region of hKv1.2 channel (Figure 6A). Pharmacological experiments with 100 nM and 1 μM MeuKTX were able to inhibit 45.7 ± 7.9% and 82.8 ± 6.1% of hKv1.3-M1 channel currents, respectively (Figure 6B).
as §1, §2
(§4) Whole-cell current measurement and data acquisition were performed using an EPC-10 patch-clamp amplifier controlled by Pulse (HEKA Elektronik, Lambrecht, Germany). The potassium currents were recorded according to the recording protocol for the Kv1 channel, as described in previously published references. Peptides were dissolved in an external solution containing 0.01% BSA for electrophysiological experiments. The patch pipette solution contained 140 mM KF (Sigma, St. Louis, MC, USA), 2 mM MgCl2 (Sinopharm Chemical Reagent Co., Ltd., Shanghai, China), 1 mM EGTA (Sigma) and 10 mM HEPES (neoFroxx, Einhausen, Hessen, Germany) (pH adjusted to 7.4 with KOH (Sinopharm Chemical Reagent Co., Ltd., Shanghai, China)), and the bath solution contained 4.5 mM KCl, 160 Mm NaCl (Sinopharm Chemical Reagent Co., Ltd., Shanghai, China), 5 mM HEPES, 2 mM CaCl2 (Sinopharm Chemical Reagent Co., Ltd., Shanghai, China) and 1 mM MgCl2 (pH adjusted to 7.4 with NaOH (Sinopharm Chemical Reagent Co., Ltd., Shanghai, China)).
(§5) Graphing and data analysis were conducted using GraphPad Prism software (Version 8.0, San Diego, CA, USA), ClampFit software (version 10.2, Molecular Devices, Sunnyvale, CA, USA), and SigmaPlot software (version 12.0, IBM SPSS, Chicago, IL, USA). The dose–response relationship between the channel current and peptide inhibition was modeled by the modified Hill equation: Ipeptide/Icontrol = 1/{1 + [peptide]/IC50}, where Ipeptide represents the potassium current under peptide inhibition, Icontrol represents the peak current, IC50 is the half-maximal inhibition concentration and [peptide] represents the peptide concentration. The IC50 was obtained by fitting the Hill equation. Results are presented as mean ± SE, with each sample tested on at least three cells (n ≥ 3).

The subject of test [3] is hKv1.3-M2 channel (filter region of hKv1.3 substituted by hKv1.2 region). As to the kind of experiment: Whole-cell patch clamp, chimeric hKv1.3-M2 channel currents. It is filed as cell-based, human. The following applies: mean ± SE, n ≥ 3, SEM. Here is the method: Apart from the chimeric hKv1.3-M1, this work further constructed the chimeric hKv1.3-M2 channel, in which the filter region of hKv1.3 channel was substituted by the equivalent region of hKv1.2 channel (Figure 6A). Pharmacological experiments 100 nM and 1 μM MeuKTX were able to inhibit 78.3 ± 4.9% and 95.9 ± 1.3% of hKv1.3-M2 channel currents, respectively, which indicated the minor effect of channel filter region on MeuKTX binding (Figure 6B). However, more significant effects were also observed for BmK-NSPK analogs with different numbers of basic residues.
as §1, §2, §4, §5

The subject of test [4] is hKv1.3-M3 channel (turret, pore helix and filter region of hKv1.3 replaced by hKv1.2 regions). As to the kind of experiment: Whole-cell patch clamp, chimeric hKv1.3-M3 channel currents. It is filed as cell-based, human. The following applies: mean ± SE, n ≥ 3, SEM.
Source text: as §1, §2, §4, §5

hKv1.2 channel (human), sequence (P16389 whole entry): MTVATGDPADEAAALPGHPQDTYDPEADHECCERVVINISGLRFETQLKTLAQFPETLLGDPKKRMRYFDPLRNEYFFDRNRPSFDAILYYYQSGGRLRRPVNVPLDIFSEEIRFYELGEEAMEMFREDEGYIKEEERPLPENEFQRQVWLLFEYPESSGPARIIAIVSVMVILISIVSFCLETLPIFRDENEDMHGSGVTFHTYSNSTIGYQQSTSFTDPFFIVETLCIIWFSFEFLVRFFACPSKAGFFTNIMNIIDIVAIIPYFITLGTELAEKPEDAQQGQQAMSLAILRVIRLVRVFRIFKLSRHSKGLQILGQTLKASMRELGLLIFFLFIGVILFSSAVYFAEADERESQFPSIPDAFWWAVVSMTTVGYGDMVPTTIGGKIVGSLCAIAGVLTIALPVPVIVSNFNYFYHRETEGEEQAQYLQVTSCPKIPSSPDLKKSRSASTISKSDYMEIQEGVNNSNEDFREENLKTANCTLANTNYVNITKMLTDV
hKv1.1 channel (human), sequence (Q09470 whole entry): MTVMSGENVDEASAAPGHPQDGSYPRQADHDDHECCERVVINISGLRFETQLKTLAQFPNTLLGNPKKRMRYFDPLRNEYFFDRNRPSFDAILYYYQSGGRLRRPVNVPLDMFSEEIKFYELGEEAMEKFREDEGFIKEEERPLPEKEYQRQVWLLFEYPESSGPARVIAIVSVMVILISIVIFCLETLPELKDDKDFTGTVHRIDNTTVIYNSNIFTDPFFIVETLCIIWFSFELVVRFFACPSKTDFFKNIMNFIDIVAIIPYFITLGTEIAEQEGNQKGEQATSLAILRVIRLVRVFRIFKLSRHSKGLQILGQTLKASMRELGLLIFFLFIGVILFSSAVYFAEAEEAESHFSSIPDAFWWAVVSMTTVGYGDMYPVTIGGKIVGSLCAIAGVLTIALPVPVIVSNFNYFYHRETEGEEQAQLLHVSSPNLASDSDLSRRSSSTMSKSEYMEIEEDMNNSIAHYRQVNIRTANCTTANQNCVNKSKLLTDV
human Kv1.3 potassium channel (human), sequence (P22001 whole entry): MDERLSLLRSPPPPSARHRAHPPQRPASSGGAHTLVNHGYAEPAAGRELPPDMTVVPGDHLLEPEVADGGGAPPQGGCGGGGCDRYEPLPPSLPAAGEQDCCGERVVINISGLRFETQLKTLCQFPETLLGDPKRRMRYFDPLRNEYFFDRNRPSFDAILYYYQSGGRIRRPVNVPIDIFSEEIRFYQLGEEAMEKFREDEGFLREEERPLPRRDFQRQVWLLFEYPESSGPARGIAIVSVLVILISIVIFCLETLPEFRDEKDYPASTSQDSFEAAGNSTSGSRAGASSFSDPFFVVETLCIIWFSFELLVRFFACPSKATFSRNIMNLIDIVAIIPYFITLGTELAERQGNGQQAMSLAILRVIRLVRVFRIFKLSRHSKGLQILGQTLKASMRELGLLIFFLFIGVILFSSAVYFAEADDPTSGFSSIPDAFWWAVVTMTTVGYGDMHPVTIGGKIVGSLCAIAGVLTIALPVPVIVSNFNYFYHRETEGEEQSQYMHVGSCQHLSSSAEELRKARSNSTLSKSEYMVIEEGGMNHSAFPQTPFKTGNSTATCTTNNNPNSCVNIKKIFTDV
hKv1.6 channel (human), sequence (P17658 whole entry): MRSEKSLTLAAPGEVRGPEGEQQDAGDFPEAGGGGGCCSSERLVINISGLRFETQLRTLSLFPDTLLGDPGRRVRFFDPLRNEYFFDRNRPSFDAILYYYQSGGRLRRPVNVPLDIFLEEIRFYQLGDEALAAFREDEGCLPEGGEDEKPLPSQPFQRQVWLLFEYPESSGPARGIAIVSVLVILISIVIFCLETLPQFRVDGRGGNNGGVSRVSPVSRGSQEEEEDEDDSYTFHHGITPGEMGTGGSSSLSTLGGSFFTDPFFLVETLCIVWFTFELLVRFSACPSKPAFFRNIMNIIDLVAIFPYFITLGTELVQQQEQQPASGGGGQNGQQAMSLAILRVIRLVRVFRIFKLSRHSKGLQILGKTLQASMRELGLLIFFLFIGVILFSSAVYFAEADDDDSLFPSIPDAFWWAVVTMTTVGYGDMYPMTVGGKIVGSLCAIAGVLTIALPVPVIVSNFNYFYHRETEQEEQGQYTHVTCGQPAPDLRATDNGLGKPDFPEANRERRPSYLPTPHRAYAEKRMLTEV

For MeuKTX peptide, the IC50 of inhibition of hKv1.3 channel currents (whole-cell patch clamp, HEK293T) in test [1] amounted to 2.63 nM. In the test with hKv1.1 channel (human), this compound returned an inhibition of hKv1.1 channel currents by 1 μM peptide (whole-cell patch clamp, HEK293T) of 90.7%. In addition, in the test with hKv1.2 channel (human), the inhibition of hKv1.2 channel currents by 1 μM peptide (whole-cell patch clamp, HEK293T) came to 14.6%. The compound also registered an inhibition of hKv1.6 channel currents by 1 μM peptide (whole-cell patch clamp, HEK293T) with hKv1.6 channel (human) of 77.4%.

BmK-NSPK peptide displayed an inhibition of hKv1.3 channel currents by 1 μM peptide (whole-cell patch clamp, HEK293T) in test [1] of 2.3%. The compound further returned an inhibition of hKv1.1 channel currents by 1 μM peptide (whole-cell patch clamp, HEK293T) with hKv1.1 channel (human) of 1.2%. This compound also registered an inhibition of hKv1.2 channel currents by 1 μM peptide (whole-cell patch clamp, HEK293T) with hKv1.2 channel (human) of 1.7%. In the test with hKv1.6 channel (human), the inhibition of hKv1.6 channel currents by 1 μM peptide (whole-cell patch clamp, HEK293T) came to 5.4%.

Consider `CC[C@H](C)[C@H](NC(=O)CNC(=O)[C@@H](N)C(C)C)C(=O)N[C@@H](CC(N)=O)C(=O)N[C@H](C(=O)N[C@@H](CCCCN)C(=O)N[C@H]1CSSC[C@@H]2NC(=O)[C@H](CCCCN)NC(=O)CNC(=O)[C@H](Cc3ccccc3)NC(=O)[C@H](CCCNC(=N)N)NC(=O)[C@H](CCSC)NC(=O)CNC(=O)[C@H](C)NC(=O)[C@H](CC(=O)O)NC(=O)[C@H](CCCCN)NC(=O)[C@@H]3CSSC[C@@H](C(=O)N[C@H](C(=O)N4CCC[C@H]4C(=O)N[C@@H](CCCCN)C(=O)NCC(=O)O)[C@@H](C)O)NC(=O)[C@H](CC(=O)O)NC(=O)[C@H](CSSC[C@H](NC(=O)[C@H](CCC(N)=O)NC(=O)CNC(=O)[C@H](CO)NC(=O)[C@H](Cc4c[nH]cn4)NC(=O)[C@H](CCCCN)NC1=O)C(=O)N[C@@H](CC(C)C)C(=O)N[C@@H](CCCCN)C(=O)N1CCC[C@H]1C(=O)N3)NC(=O)[C@H](CCCCN)NC(=O)CNC(=O)[C@H](CC(N)=O)NC(=O)[C@H](CCSC)NC2=O)C(C)C` [BmK-NSPK-7K] (H-VGINVKCKHSGQCLKPCKDAGMRFGKCMNGKCDCTPKG-OH; disulfide 7-27, 13-32, 17-34 (inferred); N-terminus and C-terminus assumed), for which the “inhibition of hKv1.1 channel currents” value in the test on hKv1.1 channel was found to be 84.1 ± 7.0%. In addition, the “inhibition of hKv1.2 channel currents” value in the test with hKv1.2 channel was determined as 9.2 ± 0.6%. Also, in the test with hKv1.6 channel, the “inhibition of hKv1.6 channel currents” value turned out to be 79.2 ± 2.4%. Besides, the figures for the “inhibition of hKv1.3-M1 channel currents” value in test [2] (100 nM peptide) and in [2] (1 μM peptide) were 23.4 ± 3.4% and 78.8 ± 3.4%, respectively. Moreover, the results for the “inhibition of hKv1.3-M2 channel currents” value in [3] (100 nM peptide) and in test [3] (1 μM peptide) were 35.4 ± 6.7% and 72.9 ± 7.0%, respectively. In addition, the “inhibition of hKv1.3-M3 channel currents” value is recorded as 1.2 ± 0.21% in test [4] (100 nM peptide) and 7.4 ± 0.64% in [4] (1 μM peptide).

With `CC[C@H](C)[C@H](NC(=O)CNC(=O)[C@@H](N)C(C)C)C(=O)N[C@@H](CC(N)=O)C(=O)N[C@H](C(=O)N[C@@H](CCCCN)C(=O)N[C@H]1CSSC[C@@H]2NC(=O)[C@H](CCCCN)NC(=O)CNC(=O)[C@H](Cc3ccccc3)NC(=O)[C@H](CCCNC(=N)N)NC(=O)[C@H](CCSC)NC(=O)CNC(=O)[C@H](C)NC(=O)[C@H](CC(=O)O)NC(=O)[C@H](CCCCN)NC(=O)[C@@H]3CSSC[C@@H](C(=O)N[C@H](C(=O)N4CCC[C@H]4C(=O)N[C@@H](CCCCN)C(=O)O)[C@@H](C)O)NC(=O)[C@H](CC(=O)O)NC(=O)[C@H](CSSC[C@H](NC(=O)[C@H](CCC(N)=O)NC(=O)CNC(=O)[C@H](CO)NC(=O)[C@H](Cc4c[nH]cn4)NC(=O)[C@H](CCCCN)NC1=O)C(=O)N[C@@H](CC(C)C)C(=O)N[C@@H](CCCCN)C(=O)N1CCC[C@H]1C(=O)N3)NC(=O)[C@H](CCCCN)NC(=O)CNC(=O)[C@H](CC(N)=O)NC(=O)[C@H](CCSC)NC2=O)C(C)C` [MeuKTX, reference compound] (H-VGINVKCKHSGQCLKPCKDAGMRFGKCMNGKCDCTPK-OH; disulfide 7-27, 13-32, 17-34 (inferred); N-terminus and C-terminus assumed), the “inhibition of hKv1.1 channel currents” value with hKv1.1 channel was 90.7 ± 1.1%. Moreover, the “inhibition of hKv1.2 channel currents” value with hKv1.2 channel stood at 14.6 ± 2.6%. Further, in the test with hKv1.6 channel, the “inhibition of hKv1.6 channel currents” value is listed as 77.4 ± 2.7%. Further, the “inhibition of hKv1.3-M1 channel currents” value is 45.7 ± 7.9% in test [2] (100 nM peptide) and 82.8 ± 6.1% in test [2] (1 μM peptide). For the same compound, the “inhibition of hKv1.3-M2 channel currents” value in [3] (100 nM peptide) is 78.3 ± 4.9%; in [3] (1 μM peptide), 95.9 ± 1.3%. The figures for the “inhibition of hKv1.3-M3 channel currents” value in test [4] (100 nM peptide) and in test [4] (1 μM peptide) were 3.9 ± 0.21% and 16.1 ± 2.0%, respectively.
